Measured values from US5637501A, “Apparatus for automatically testing the antibiotic sensitivity of a paraffinophilic microorganism” (Infectech, Inc., priority 1995, dated 1997).
≈ marks a conversion by molar mass, not a printed value. Where two headings read alike, the source gives them in different places.

System: MAI
Experiment: antibiotic sensitivity (MIC) of MAI strains, paraffin slide culture and microliter assays
Format: cell-based, Mycobacterium avium-intracellulare
Design: key: NG: No Growth
From the text: The present invention has met the above-described need. In one embodiment, it provides a method of automatically testing the sensitivity of a paraffinophilic microorganism to different antimicrobial agents, such as antibiotics, and concentrations thereof, by providing a plurality of receptacles, each containing an amount of liquid medium, an antimicrobial agent to be tested and the microorganism to be tested. In each of the receptacles is placed a slide containing a paraffin source. The receptacles are then incubated, after which a light scatter sensing means automatically and sequentially monitors the extent of microorganism growth on the slides. The extent of colony growth is employed to determine which antimicrobial agent in which concentration is effective to resist growth of the microorganism. A preferred light scatter sensing means is a nephelometer.
Referring specifically to FIG. 1, there is shown a preferred embodiment of the present invention usable in a method of automatically testing the sensitivity of a pure culture of a microorganism to different antimicrobial agents and concentrations thereof. In this embodiment, a microorganism, which may have been previously speciated as by the technique taught in U.S. Pat. No. 5,153, 119, has been introduced into a plurality of receptacles, each containing an amount of liquid medium and antimicrobial agent to be tested. A paraffin slide is introduced into each of the receptacles which are subsequently incubated. The receptacles 2-22 (even numbers only) are fixedly secured to an elongated, substantially rigid movable carrier member 26, such that the receptacles 2-22 will be translated therewith in the direction shown by the arrow A. The carrier member 26 may be made of any suitable material, such as aluminum, steel, stainless steel, or resinous plastic, for example. The receptacles 2-22, respectively, contain slides 32-52 (even numbers only). The slides 32-52 are fixedly secured, respectively, within receptacles 2-22 which may test tubes. The slides 32-52 are generally oriented so as to have their elongated direction aligned with the direction of travel of the carrier 26. As the carrier moves in the direction of arrow A, the slides 2-22 will sequentially be positioned in operative relationship to the light scatter sensing means which consists of light source 60, which directs a light beam toward light detector 62. In the preferred embodiment, a beam of visible light from light source 60 will impinge upon slide 32, with the growth of the microorganism thereon producing a corresponding scatter of light which is received by the light receiving sensor 62 and converts the received light into an appropriate output electrical signal which will be delivered to computer means 64. The computer means 64, in turn, provides output to output means 66, which may conveniently be a display, such as a cathode ray tube or a hard copy printer, for example. The degree of light scatter will be related to the extent of microorganism growth with light scatter increasing as growth on the slide increases.
The computer means 64 may be a general purpose digital microprocessor. It may be programmed in a manner readily known to those skilled in the art to sequentially compare the light scatter value of each slide 32-52 with that of a control slide and to provide an output to output means 66, such as a visual screen display or hard copy, with or without prior enhancement, which indicates the difference between the control slide and the specific slides containing the same pure culture of a paraffinophilic microorganism, but exposed to different concentrations of different or the same antimicrobial agents, such an antibiotics. In this manner, there is provided the minimal concentration level of a specific antimicrobial agent that must be used to control growth of the microorganism. Also, the minimum bactericidal concentration may be determined. […]

[1] = Table 2, Exp. Series I, strain 7

- MIC (Mycobacterium avium-intracellulare, Table 2, Exp. Series I, strain 1, read-out: MIC): > 16 µg/mL
- MIC (Mycobacterium avium-intracellulare, Table 2, Exp. Series I, strain 2, read-out: MIC): > 16 µg/mL
- MIC (Mycobacterium avium-intracellulare, Table 2, Exp. Series I, strain 3, read-out: MIC): 6.4 µg/mL (≈ 10.9 µM)
- MIC (Mycobacterium avium-intracellulare, Table 2, Exp. Series I, strain 4, read-out: MIC): 3.2 µg/mL (≈ 5.46 µM)
- MIC (Mycobacterium avium-intracellulare, Table 2, Exp. Series I, strain 5, read-out: MIC): 6.4 µg/mL (≈ 10.9 µM)
- MIC (Mycobacterium avium-intracellulare, Table 2, Exp. Series I, strain 6, read-out: MIC): 12 µg/mL (≈ 20.5 µM)
- MIC (Mycobacterium avium-intracellulare, Table 2, Exp. Series I, strain 8, read-out: MIC): > 16 µg/mL
- MIC (Mycobacterium avium-intracellulare, Table 2, Exp. Series I, strain 9, read-out: MIC): 12 µg/mL (≈ 20.5 µM)
- MIC (Mycobacterium avium-intracellulare, Table 2, Exp. Series I, strain 10, read-out: MIC): 6.4 µg/mL (≈ 10.9 µM)
- MIC (Mycobacterium avium-intracellulare, Table 2, Exp. Series I, strain 11, read-out: MIC): 7.3 µg/mL (≈ 12.5 µM)
- MIC (Mycobacterium avium-intracellulare, Table 2, Exp. Series I, strain 12, read-out: MIC): 3.2 µg/mL (≈ 5.46 µM)
- MIC (Mycobacterium avium-intracellulare, Table 2, Exp. Series I, strain 13, read-out: MIC): 3.2 µg/mL (≈ 5.46 µM)
- MIC (Mycobacterium avium-intracellulare, Table 2, Exp. Series I, strain 14, read-out: MIC): 9.6 µg/mL (≈ 16.4 µM)
- MIC (Mycobacterium avium-intracellulare, Table 2, Exp. Series I, strain 15, read-out: MIC): 6.4 µg/mL (≈ 10.9 µM)
- MIC (Mycobacterium avium-intracellulare, Table 2, Exp. Series I, strain 16, read-out: MIC): 6.4 µg/mL (≈ 10.9 µM)
- MIC (Mycobacterium avium-intracellulare, Table 2, Exp. Series II, strain 1, read-out: MIC): > 16 µg/mL
- MIC (Mycobacterium avium-intracellulare, Table 2, Exp. Series II, strain 2, read-out: MIC): 12 µg/mL (≈ 20.5 µM)
- MIC (Mycobacterium avium-intracellulare, Table 2, Exp. Series II, strain 3, read-out: MIC): 6.4 µg/mL (≈ 10.9 µM)
- MIC (Mycobacterium avium-intracellulare, Table 2, Exp. Series II, strain 4, read-out: MIC): 6.4 µg/mL (≈ 10.9 µM)
- MIC (Mycobacterium avium-intracellulare, Table 2, Exp. Series II, strain 5, read-out: MIC): 3.2 µg/mL (≈ 5.46 µM)
- MIC (Mycobacterium avium-intracellulare, Table 2, Exp. Series II, strain 6, read-out: MIC): 3.2 µg/mL (≈ 5.46 µM)
- MIC (Mycobacterium avium-intracellulare, Table 2, Exp. Series II, strain 7, read-out: MIC): 6.4 µg/mL (≈ 10.9 µM)
- MIC (Mycobacterium avium-intracellulare, Table 2, Exp. Series II, strain 8, read-out: MIC): > 16 µg/mL
- MIC (Mycobacterium avium-intracellulare, Table 2, Exp. Series II, strain 9, read-out: MIC): 3.2 µg/mL (≈ 5.46 µM)
- MIC (Mycobacterium avium-intracellulare, Table 2, Exp. Series II, strain 10, read-out: MIC): 6.4 µg/mL (≈ 10.9 µM)
- MIC (Mycobacterium avium-intracellulare, Table 2, Exp. Series II, strain 11, read-out: MIC): 9.6 µg/mL (≈ 16.4 µM)
- MIC (Mycobacterium avium-intracellulare, Table 2, Exp. Series II, strain 12, read-out: MIC): 6.4 µg/mL (≈ 10.9 µM)
- MIC (Mycobacterium avium-intracellulare, Table 2, Exp. Series II, strain 13, read-out: MIC): 9.6 µg/mL (≈ 16.4 µM)
- MIC (Mycobacterium avium-intracellulare, Table 2, Exp. Series II, strain 14, read-out: MIC): > 16 µg/mL
- MIC (Mycobacterium avium-intracellulare, Table 2, Exp. Series II, strain 15, read-out: MIC): 6.4 µg/mL (≈ 10.9 µM)
- MIC (Mycobacterium avium-intracellulare, Table 2, Exp. Series II, strain 16, read-out: MIC): 9.6 µg/mL (≈ 16.4 µM)
- MIC (Mycobacterium avium-intracellulare, Table 2, Exp. Series III, strain 1, read-out: MIC): 3.2 µg/mL (≈ 5.46 µM)
- MIC (Mycobacterium avium-intracellulare, Table 2, Exp. Series III, strain 2, read-out: MIC): 3.2 µg/mL (≈ 5.46 µM)
- MIC (Mycobacterium avium-intracellulare, Table 2, Exp. Series III, strain 3, read-out: MIC): 6.4 µg/mL (≈ 10.9 µM)
- MIC (Mycobacterium avium-intracellulare, Table 2, Exp. Series III, strain 4, read-out: MIC): 3.2 µg/mL (≈ 5.46 µM)
- MIC (Mycobacterium avium-intracellulare, Table 2, Exp. Series III, strain 5, read-out: MIC): 3.2 µg/mL (≈ 5.46 µM)
- MIC (Mycobacterium avium-intracellulare, Table 2, Exp. Series III, strain 6, read-out: MIC): 3.2 µg/mL (≈ 5.46 µM)
- MIC (Mycobacterium avium-intracellulare, Table 2, Exp. Series III, strain 7, read-out: MIC): 6.4 µg/mL (≈ 10.9 µM)
- MIC (Mycobacterium avium-intracellulare, Table 2, Exp. Series III, strain 8, read-out: MIC): 3.2 µg/mL (≈ 5.46 µM)
- MIC (Mycobacterium avium-intracellulare, Table 2, Exp. Series III, strain 9, read-out: MIC): 3.2 µg/mL (≈ 5.46 µM)
- MIC (Mycobacterium avium-intracellulare, Table 2, Exp. Series III, strain 10, read-out: MIC): 3.2 µg/mL (≈ 5.46 µM)
- MIC (Mycobacterium avium-intracellulare, Table 2, Exp. Series III, strain 11, read-out: MIC): 6.4 µg/mL (≈ 10.9 µM)
- MIC (Mycobacterium avium-intracellulare, Table 2, Exp. Series III, strain 12, read-out: MIC): 6.4 µg/mL (≈ 10.9 µM)
- MIC (Mycobacterium avium-intracellulare, Table 2, Exp. Series III, strain 13, read-out: MIC): 6.4 µg/mL (≈ 10.9 µM)
- MIC (Mycobacterium avium-intracellulare, Table 2, Exp. Series III, strain 14, read-out: MIC): 6.4 µg/mL (≈ 10.9 µM)
- MIC (Mycobacterium avium-intracellulare, Table 2, Exp. Series III, strain 15, read-out: MIC): 3.2 µg/mL (≈ 5.46 µM)
- MIC (Mycobacterium avium-intracellulare, Table 2, Exp. Series III, strain 16, read-out: MIC): 3.2 µg/mL (≈ 5.46 µM)
- MIC [1]: NG
Structure (SMILES): NCC[C@H](O)C(=O)N[C@@H]1C[C@H](N)[C@@H](O[C@H]2O[C@H](CN)[C@@H](O)[C@H](O)[C@H]2O)[C@H](O)[C@H]1O[C@H]1O[C@H](CO)[C@@H](O)[C@H](N)[C@H]1O [amikacin]
- Days to Confluency (Table 2, Exp. Series I, strain 1): 7 days
- Days to Confluency (Table 2, Exp. Series I, strain 2): 7 days
- Days to Confluency (Table 2, Exp. Series I, strain 3): 8 days
- Days to Confluency (Table 2, Exp. Series I, strain 4): 8 days
- Days to Confluency (Table 2, Exp. Series I, strain 5): 7 days
- Days to Confluency (Table 2, Exp. Series I, strain 6): 7 days
- Days to Confluency [1]: NG
- Days to Confluency (Table 2, Exp. Series I, strain 8): 7 days
- Days to Confluency (Table 2, Exp. Series I, strain 9): 8 days
- Days to Confluency (Table 2, Exp. Series I, strain 10): 6 days
- Days to Confluency (Table 2, Exp. Series I, strain 11): 5 days
- Days to Confluency (Table 2, Exp. Series I, strain 12): 5 days
- Days to Confluency (Table 2, Exp. Series I, strain 13): 6 days
- Days to Confluency (Table 2, Exp. Series I, strain 14): 5 days
- Days to Confluency (Table 2, Exp. Series I, strain 15): 5 days
- Days to Confluency (Table 2, Exp. Series I, strain 16): 5 days
- Days to Confluency (Table 2, Exp. Series II, strain 1): 7 days
- Days to Confluency (Table 2, Exp. Series II, strain 2): 7 days
- Days to Confluency (Table 2, Exp. Series II, strain 3): 9 days
- Days to Confluency (Table 2, Exp. Series II, strain 4): 5 days
- Days to Confluency (Table 2, Exp. Series II, strain 5): 5 days
- Days to Confluency (Table 2, Exp. Series II, strain 6): 5 days
- Days to Confluency (Table 2, Exp. Series II, strain 7): 5 days
- Days to Confluency (Table 2, Exp. Series II, strain 8): 7 days
- Days to Confluency (Table 2, Exp. Series II, strain 9): 6 days
- Days to Confluency (Table 2, Exp. Series II, strain 10): 6 days
- Days to Confluency (Table 2, Exp. Series II, strain 11): 6 days
- Days to Confluency (Table 2, Exp. Series II, strain 12): 6 days
- Days to Confluency (Table 2, Exp. Series II, strain 13): 6 days
- Days to Confluency (Table 2, Exp. Series II, strain 14): 6 days
- Days to Confluency (Table 2, Exp. Series II, strain 15): 6 days
- Days to Confluency (Table 2, Exp. Series II, strain 16): 6 days
- Days to Confluency (Table 2, Exp. Series III, strain 1): 5 days
- Days to Confluency (Table 2, Exp. Series III, strain 2): 5 days
- Days to Confluency (Table 2, Exp. Series III, strain 3): 12 days
- Days to Confluency (Table 2, Exp. Series III, strain 4): 6 days
- Days to Confluency (Table 2, Exp. Series III, strain 5): 5 days
- Days to Confluency (Table 2, Exp. Series III, strain 6): 5 days
- Days to Confluency (Table 2, Exp. Series III, strain 7): 5 days
- Days to Confluency (Table 2, Exp. Series III, strain 8): 5 days
- Days to Confluency (Table 2, Exp. Series III, strain 9): 7 days
- Days to Confluency (Table 2, Exp. Series III, strain 10): 5 days
- Days to Confluency (Table 2, Exp. Series III, strain 11): 5 days
- Days to Confluency (Table 2, Exp. Series III, strain 12): 5 days
- Days to Confluency (Table 2, Exp. Series III, strain 13): 6 days
- Days to Confluency (Table 2, Exp. Series III, strain 14): 5 days
- Days to Confluency (Table 2, Exp. Series III, strain 15): 5 days
- Days to Confluency (Table 2, Exp. Series III, strain 16): 5 days
